Calls of active or inactive are those of the source. The rule behind the calls is not given here.
Experiments:
[1] = system: T-24; experiment: Antiproliferative activity against human T24 cells xenografted in nude mouse model assessed as tumor inhibition rate at 15 mg/kg, ip administered once every two days for 21 days relative to control; type: functional; settings: T-24, 504 h, time 21 day
[2] = system: T-24; experiment: Upregulation of fatty acid metabolism in human T24 cells at 5 uM incubated for 24 hrs by KEGG analysis; type: functional, cell-based
[3] = system: T-24; experiment: Induction of apoptosis in human T24 cells assessed as increase in cleaved caspase-3 level at 2 to 8 uM incubated for 24 hrs by Western blot analysis; type: functional, cell-based; settings: dose 2-8 µM
[4] = system: T-24; experiment: Induction of ferroptosis in human T24 cells assessed as increase in ROS level at 5 uM incubated for 24 hrs by DCFH-DA probe based analysis; type: functional, cell-based
[5] = system: T-24; experiment: Induction of autophagy in human T24 cells assessed as increase in LC-3 level at 2 to 8 uM incubated for 24 hrs by Western blot analysis; type: functional, cell-based; settings: dose 2-8 µM
[6] = system: T-24; experiment: Induction of ferroptosis in human T24 cells assessed as increase in lipid peroxide level at 5 uM incubated for 24 hrs by fluorescence based analysis; type: functional, cell-based
[7] = system: T-24; experiment: Induction of cell cycle arrest in human T24 cells assessed as decrease in MCM5 level at 2 to 5 uM by Western blot analysis; type: functional, cell-based; settings: dose 2-5 µM
[8] = system: HepG2; experiment: Antiproliferative activity against human HepG2 cells xenografted in nude mouse model assessed as tumor inhibition rate at 15 mg/kg, ip administered once every two days for 21 days relative to control; type: functional; settings: HepG2, 504 h, time 21 day
[9] = system: T-24; experiment: Induction of ferroptosis in human T24 cells assessed as increase in iron level at 5 uM incubated for 24 hrs in presence of DFO by FerrOrange probe based confocal microscopy; type: functional, cell-based
[10] = system: T-24; experiment: Anti-migratory activity against human T24 cells at 1 to 10 uM incubated upto 48 hrs by wound healing assay; type: functional, cell-based; settings: dose 1-10 µM
[11] = Toxicity in nude mouse model xenografted with human T24 cells assessed as pathological change in spleen at 15 mg/kg, ip administered once every two days for 21 days; type: organism-based, T-24; settings: in vivo, 504 h, time 21 day
[12] = system: T-24; experiment: Anti-migratory activity against human T24 cells at 5 uM by wound healing assay; type: functional, cell-based; settings: time <= 48.0 hrs, TDE = time-dependent effect
[13] = system: SK-OV-3; experiment: Antiproliferative activity against human SK-OV-3 cells incubated for 48 hrs by MTT assay; type: functional, cell-based; settings: SK-OV-3, 48 h
[14] = system: T-24; experiment: Induction of apoptosis in human T24 cells assessed as increase in Bak level at 2 to 8 uM incubated for 24 hrs by Western blot analysis; type: functional, cell-based; settings: dose 2-8 µM
[15] = system: T-24; experiment: Induction of ferroptosis in human T24 cells assessed as increase in iron level at 5 uM incubated for 24 hrs by FerrOrange probe based confocal microscopy; type: functional, cell-based
[16] = Toxicity in nude mouse model xenografted with human HepG2 cells assessed as pathological change in lung at 15 mg/kg, ip administered once every two days for 21 days; type: organism-based; settings: in vivo, 504 h, time 21 day
[17] = system: T-24; experiment: Downregulation of mTOR level in human T24 cells at 2 to 8 uM incubated for 24 hrs by Western blot analysis; type: functional, cell-based; settings: dose 2-8 µM
[18] = Toxicity in nude mouse model xenografted with human HepG2 cells assessed as pathological change in spleen at 15 mg/kg, ip administered once every two days for 21 days; type: organism-based; settings: in vivo, 504 h, time 21 day
[19] = system: HUVEC; experiment: Antiproliferative activity against HUVEC cells incubated for 48 hrs by MTT assay; type: functional, cell-based; settings: Homo sapiens
[20] = system: T-24; experiment: Induction of apoptosis in human T24 cells assessed as increase in Bax level at 2 to 8 uM incubated for 24 hrs by Western blot analysis; type: functional, cell-based; settings: dose 2-8 µM
[21] = system: MGC-803; experiment: Antiproliferative activity against human MGC-803 cells incubated for 48 hrs by MTT assay; type: functional, cell-based; settings: MGC-803, 48 h
[22] = system: T-24; experiment: Induction of cell cycle arrest at S phase in human T24 cells at 2 uM incubated for 24 hrs by flow cytometry (reference value: 12.39 %); type: functional
[23] = system: T-24; experiment: Induction of ferroptosis in human T24 cells assessed as increase in superoxide anion level at 5 uM incubated for 24 hrs by DHE probe based analysis; type: functional, cell-based
[24] = system: T-24; experiment: Induction of cell cycle arrest at S phase in human T24 cells at 5 uM incubated for 24 hrs by flow cytometry (reference value: 12.39 %); type: functional
[25] = system: T-24; experiment: Induction of cell cycle arrest at G2/M phase in human T24 cells at 5 uM incubated for 24 hrs by flow cytometry (reference value: 12.30 %); type: functional
[26] = system: T-24; experiment: Antitumor activity against human T24 cells assessed as effect on PI3K-AKT signaling pathway at 5 uM incubated for 24 hrs by TMT/iTRAQ analysis; type: functional, cell-based
[27] = system: T-24; experiment: Induction of ferroptosis in human T24 cells assessed as increase in mitochondrial membrane density at 5 uM incubated for 24 hrs by TEM analysis; type: functional, cell-based
[28] = system: T-24; experiment: Induction of apoptosis in human T24 cells at 5 uM incubated for 24 hrs by KEGG analysis; type: functional, cell-based
[29] = system: T-24; experiment: Induction of apoptosis in human T24 cells assessed as increase in cleaved PARP level at 2 to 8 uM incubated for 24 hrs by Western blot analysis; type: functional, cell-based; settings: dose 2-8 µM
[30] = system: HK-2; experiment: Antiproliferative activity against human HK-2 cells incubated for 48 hrs by MTT assay; type: functional, cell-based; settings: HK-2, 48 h
[31] = system: T-24; experiment: Induction of cell cycle arrest at S phase in human T24 cells at 8 uM incubated for 24 hrs by flow cytometry (reference value: 12.39 %); type: functional
[32] = system: T-24; experiment: Induction of ferroptosis in human T24 cells at 5 uM incubated for 24 hrs by KEGG analysis; type: functional, cell-based
[33] = system: HepG2; experiment: Antiproliferative activity against human HepG2 cells incubated for 48 hrs by MTT assay; type: functional, cell-based; settings: HepG2, 48 h
[34] = system: T-24; experiment: Effect on cell cycle pathway in human T24 cells at 5 uM incubated for 24 hrs by KEGG analysis; type: functional, cell-based
[35] = system: T-24; experiment: Induction of cell cycle arrest in human T24 cells assessed as increase in p21 level at 2 to 8 uM by Western blot analysis; type: functional, cell-based; settings: dose 2-8 µM
[36] = system: T-24; experiment: Induction of ferroptosis in human T24 cells assessed as smaller mitochondria at 5 uM incubated for 24 hrs by TEM analysis; type: functional, cell-based
[37] = system: T-24; experiment: Anti-migratory activity against human T24 cells at 5 uM incubated upto 48 hrs in presence of FR180204 by wound healing assay; type: functional, cell-based
[38] = system: A549; experiment: Antiproliferative activity against human A549 cells incubated for 48 hrs by MTT assay; type: functional, cell-based
[39] = system: T-24; experiment: Downregulation of pAKT1 at S473 level in human T24 cells at 2 to 8 uM incubated for 24 hrs by Western blot analysis; type: functional, cell-based; settings: dose 2-8 µM
[40] = system: T-24; experiment: Induction of autophagy in human T24 cells assessed as decrease in P62 level at 2 to 8 uM incubated for 24 hrs by Western blot analysis; type: functional, cell-based; settings: dose 2-8 µM
[41] = system: T-24; experiment: Induction of cell cycle arrest at G0/G1 phase in human T24 cells at 2 uM incubated for 24 hrs by flow cytometry (reference value: 75.31 %); type: functional
[42] = system: T-24; experiment: Induction of apoptosis in human T24 cells assessed as increase in Bad level at 2 to 8 uM incubated for 24 hrs by Western blot analysis; type: functional, cell-based; settings: dose 2-8 µM
[43] = system: A549/CDDP; experiment: Antiproliferative activity against human A549/DDP cells incubated for 48 hrs by MTT assay; type: functional, cell-based

CN(C)CCN1C(=O)c2cccc3c(N4CCN(C(=S)SCc5ccccc5)CC4)ccc(c23)C1=O
inhibition in vivo at 15 mg/kg [1]: 56.3% | Activity [2]: Active | Activity [3]: Active | Activity [4]: Active | Activity [5]: Active | Activity [6]: Active | Activity [7]: Active | inhibition in vivo at 15 mg/kg [8]: 50% | Activity [9]: inactive | Activity [10]: Active | Activity [11]: Non-Toxic | Activity [12]: Tde | IC50 [13]: 1.43 µM | Activity [14]: Active | Activity [15]: Active | Activity [16]: Non-Toxic | Activity [17]: Active | Activity [18]: Non-Toxic | IC50 [19]: 16.7 µM | Activity [20]: Active | IC50 [21]: 5.23 µM | Activity [22]: 36.93% | Activity [23]: Active | Activity [24]: 30.58% | Activity [25]: 18.36% | Activity [26]: Active | Activity [27]: Active | Activity [28]: Active | Activity [29]: Active | IC50 [30]: 14.9 µM | Activity [31]: 13.21% | Activity [32]: Active | IC50 [33]: 3.6 µM | Activity [34]: Active | Activity [35]: Active | Activity [36]: Active | Activity [37]: inactive | Activity [38]: Active | Activity [39]: Active | Activity [40]: Active | Activity [41]: 42.37% | Activity [42]: Active | Activity [43]: Active
